Reference: ChEMBL document CHEMBL3228035, “Deoxymorphines: role of the phenolic hydroxyl in antinociception and opiate receptor interactions” (J Med Chem, 1979)
Structures can show the parent of a compound that is named as a salt.

Tests used:
[1] = test system: Mus musculus; test: Antinociceptive activity in sc dosed mouse by Nilsen assay; format: functional
[2] = test system: Mus musculus; test: Antinociceptive activity in sc dosed mouse by hot-plate assay; format: functional

Compound	ED50 [1] [µmol/kg]	ED50 [2] [µmol/kg]
CN1CC[C@]23CCCC[C@H]2[C@H]1Cc1ccc(O)cc13	0.5	0.5
CN1CC[C@]23c4c5ccc(O)c4O[C@H]2[C@@H](O)C=C[C@H]3[C@H]1C5	4.1	3.3
O[C@H]1CC[C@H]2[C@H]3Cc4cccc5c4[C@@]2(CCN3)[C@H]1O5	67.8	45.3
CN1CC[C@]23c4c5cccc4O[C@H]2[C@@H](O)CC[C@H]3[C@H]1C5	8.1	4.2
CN1CC[C@]23c4c5cccc4O[C@H]2C(=O)CC[C@H]3[C@H]1C5	2.8	1.8
C=CCN1CC[C@]23c4c5cccc4O[C@H]2[C@@H](O)CC[C@H]3[C@H]1C5	59.9	44
c1cc2c3c(c1)O[C@H]1CCC[C@H]4[C@@H](C2)NCC[C@]314	4.4	1.3
CN1CC[C@]23c4c5ccc(O)c4O[C@H]2CCC[C@H]3[C@H]1C5		0.14
CN1CC[C@]23c4c5ccc(O)c4O[C@H]2[C@@H](O)CC[C@H]3[C@H]1C5		2.5
CN1CC[C@]23c4c5cccc4O[C@H]2[C@@H](O)C=C[C@H]3[C@H]1C5	30.9	8.6
CN1CCC23CCCCC2C1Cc1ccccc13 (racemic)		16.5
CN1CC[C@]23c4c5ccc(O)c4O[C@H]2C(=O)CC[C@H]3[C@H]1C5 [HYDROMORPHONE HYDROCHLORIDE]	0.7	0.4
C=CCN1CC[C@]23c4c5ccc(O)c4O[C@H]2[C@@H](O)C=C[C@H]3[C@H]1C5 [NALORPHINE HYDROCHLORIDE]	13.8	105
